Measured values reported in US8858968B2, “Use of tyrosine-arginine dipeptide and niacinamide as substance P antagonist” (L'Oreal, priority 2005, dated 2014).
Ends that are not written are not given here.

Tests used:
[1] = system: human skin kept under survival conditions; assay: Histological evaluation of dermal oedema (semi-quantitative score) on the skin sections of Example 1; format: cell-based; settings: for Dermal oedema score (0-3): human skin explant, substance P 10 μM, niacinamide 0.5%, dipeptide 0.1% (b140 prints the reverse), mean +/− spread; for effect on dermal oedema (in words): compared with substance P-stimulated skin and control skin
Method: The activity of each of the active agents and of the combination thereof is evaluated in a model of human skin kept under survival conditions. […] Using the sections prepared in Example 1, the oedema is evaluated by means of semi-quantitative scores: • score 0: no oedema • score 1: very slight oedema • score 2: moderate oedema • score 3: considerable oedema

[2] = system: human skin kept under survival conditions; assay: Histological evaluation of the average surface area of the capillaries in human skin kept under survival conditions, stimulated with substance P; format: cell-based; settings: for Percentage of dilated dermal capillaries: substance P 10 μM in culture medium, niacinamide 0.5%, dipeptide 0.1% (b140 prints the reverse), mean +/− spread; for effect on surface area / dilatation of the dermal capillaries (in words): compared with substance P-treated skin and control skin
Method: The activity of each of the active agents and of the combination thereof is evaluated in a model of human skin kept under survival conditions. After several hours of re-equilibration of the skin with culture medium (antibiotic+SVF), the culture medium is renewed and substance P at 10 (M, with or without each of the active agents or the combination thereof, is (are) added to the culture medium. […] Morphometric analysis of the surface area (μm^2) occupied by the lumen of the vessels is carried out by microscopic observation from sections: the skin fragments are fixed in Bouin's solution and embedded in paraffin and then stained with haemalun-eosine. The vascular dilatation is evaluated by counting the number of dilated vessels over the entire histological section (16 fields at 40×magnification). This analysis makes it possible to determine the average surface area (μm^2) occupied by the vessels in the dermis.

| Molecule | Dermal oedema score (0-3) [1] | increase in the oedema score ([1]; treatment with substance P versus control skin) [%] | oedema score ([1]; treatment with substance P, score 0-3) | Percentage of dilated dermal capillaries ([2]; human skin explant) | increase in the surface area compared with the normal skin ([2]; substance P at 10 μM) [%] | average surface area occupied by the vessels in the dermis ([2]; substance P at 10 μM, human skin explant) | effect on dermal oedema (in words) [1] | effect on surface area / dilatation of the dermal capillaries (in words) [2] |
| --- | --- | --- | --- | --- | --- | --- | --- | --- |
| substance P: polypeptide (undecapeptide) produced and released by a nerve ending; used at 10 μM as stimulus (RPKPQQFFGLM; ends and bridges not checked; UniProt P20366 58-68, looked up) | 1.9 +/− 0.7 | 121 | 1.9+/−0.64 | 161.6 +/− 56.6 | 63 | 161.6+/−56.6 μm^2 | – | – |
| NC(=O)c1cccnc1 [niacinamide, pyridine-3-carboxamide] | 1.03 +/− 0.64 | – | – | 108 +/− 27.6 | – | – | back to a state corresponding to the control | back to a state corresponding to the control |
| N-acetyl-tyrosine-arginine-decahexyl ester [dipeptide] | 1 +/− 0.6 | – | – | 103.16 +/− 34 | – | – | back to a state corresponding to the control | back to a state corresponding to the control |
